# Measurements from US11000033B2, “Ketone or oxime compound, and herbicide” (NISSAN CHEMICAL CORPORATION, priority 2014, dated 2021).
# Tests used:
# Format in all cases: in vivo
# [1] = test system: Echinochloa oryzacola Vasing.; test: Test Example 1: herbicidal activity, application before weed generation in submerged conditions (symbol A); conditions: application herbicide amount 320 g/ha
# In short: (§1)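 Mixed weed seeds sown in alluvial soil under 4 cm of water, with rice seedlings at the 2.5-leaf stage added. Same-day treatment: emulsion diluted to a set herbicide amount onto the water. Three weeks at 25–30 °C, then graded on a six-step scale.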
# Monochoria vaginalis = test: Test Example 1: herbicidal activity, application before weed generation in submerged conditions (symbol C); conditions: application herbicide amount 320 g/ha
# In short: as §1
# [2] = test system: directly sowed rice plant; test: Test Example 3: effect on crop by foliage application, Wagner pot (symbol b); conditions: application herbicide amount 320 g/ha
# In short: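 Steps: fill a 1/10000-are Wagner pot with alluvial soil; add water and mix to submerge at 0.1–0.5 cm depth; sow rice plus Echinochloa crus-galli var. crus-galli, Leptochloa chinensis and Cyperus difformis; grow in a 25–30 °C greenhouse.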
# Digitaria ciliaris = test: Test Example 4: herbicidal effect by soil treatment (symbol F); conditions: 320 g/ha
# In short: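 Seeds were sown in sterilized diluvial soil, covered with about 1.5 cm of soil, and the soil surface was sprayed with a water-diluted emulsion of the compound at a predetermined rate. Plants grew in a greenhouse at 25° C. to 30° C.; effects were scored visually 3 weeks after application.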
# soybean [3] = test: Test Example 4: effect on crop by soil treatment (symbol d); conditions: 320 g/ha
# In short: (§2)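 Sterilized diluvial soil, spot sowing, ~1.5 cm soil cover; greenhouse 25–30° C.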
# wheat [4] = test: Test Example 4: effect on crop by soil treatment (symbol e); conditions: 320 g/ha
# In short: as §2
# rapeseed = test: Test Example 4: effect on crop by soil treatment (symbol g); conditions: 320 g/ha
# In short: as §2
# [5] = test system: Echinochloa crus-galli var. crus-galli; test: Test Example 5: herbicidal effect by foliage application, plastic box (symbol H); conditions: 320 g/ha, 3 weeks after application
# In short: (§3)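 Emulsion formulation, diluted with water to the intended rate, was applied uniformly to leaves by small sprayer. Recipients were 14-day greenhouse-grown seedlings (25° C. to 30° C.). Assessment followed at 3 weeks.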
# Lolium multiflorum Lam. = test: Test Example 5: herbicidal effect by foliage application, plastic box (symbol K); conditions: 320 g/ha, 3 weeks after application
# In short: as §3
# Amaranthus retroflexus = test: Test Example 5: herbicidal effect by foliage application, plastic box (symbol N); conditions: 320 g/ha, 3 weeks after application
# In short: as §3
# Chenopodium album = test: Test Example 5: herbicidal effect by foliage application, plastic box (symbol O); conditions: 320 g/ha, 3 weeks after application
# In short: as §3
# Galium spurium = test: Test Example 5: herbicidal effect by foliage application, plastic box (symbol Q); conditions: 320 g/ha, 3 weeks after application
# In short: as §3
# Veronica persica = test: Test Example 5: herbicidal effect by foliage application, plastic box (symbol R); conditions: 320 g/ha, 3 weeks after application
# In short: as §3
# soybean [6] = test: Test Example 5: effect on crop by foliage application, plastic box (symbol d); conditions: 320 g/ha, 3 weeks after application
# In short: (§4)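 Seeds were sown in spots in sterilized diluvial soil held in a plastic box 21 cm × 13 cm × 7 cm deep, covered with about 1.5 cm of soil, and grown in a greenhouse at 25° C. to 30° C.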
# wheat [7] = test: Test Example 5: effect on crop by foliage application, plastic box (symbol e); conditions: 320 g/ha, 3 weeks after application
# In short: as §4
# beet = test: Test Example 5: effect on crop by foliage application, plastic box (symbol f); conditions: 320 g/ha, 3 weeks after application
# In short: as §4
SMILES,"Herbicidal effect grade, A: Echinochloa oryzacola Vasing. [1]","Herbicidal effect grade, C: Monochoria vaginalis (Monochoria vaginalis)","effect on crop b (directly sowed rice plant), grade 0-5 [2]","F: Digitaria ciliaris, herbicidal effect grade (Digitaria ciliaris)","d: soybean, effect grade on crop (soybean [3])","e: wheat, effect grade on crop (wheat [4])","g: rapeseed, effect grade on crop (rapeseed)","H: Echinochloa crus-galli var. crus-galli, herbicidal effect (criteria 0-5) [5]","K: Lolium multiflorum Lam., herbicidal effect (criteria 0-5) (Lolium multiflorum Lam.)","N: Amaranthus retroflexus, herbicidal effect (criteria 0-5) (Amaranthus retroflexus)","O: Chenopodium album, herbicidal effect (criteria 0-5) (Chenopodium album)","Q: Galium spurium, herbicidal effect (criteria 0-5) (Galium spurium)","R: Veronica persica, herbicidal effect (criteria 0-5) (Veronica persica)","d: soybean, effect on crop (criteria 0-5) (soybean [6])","e: wheat, effect on crop (criteria 0-5) (wheat [7])","f: beet, effect on crop (criteria 0-5) (beet)"
CC(CC1CC(O)=C(c2c(C)cc(C)cc2C)C1=O)=NOCc1ccccc1C(F)(F)F (stereo not shown) [1-116],5 (Herbicidal ratio of 90% or more (almost completely withered)),5 (Herbicidal ratio of 90% or more (almost completely withered)),5 (Herbicidal ratio of 90% or more (almost completely withered)),1 (Herbicidal ratio of 5% or higher and lower than 20%),0 (Herbicidal ratio of 5% or lower (almost no effect)),0 (Herbicidal ratio of 5% or lower (almost no effect)),2 (Herbicidal ratio of 20% or higher and lower than 40%),5 (Herbicidal ratio of 90% or more (almost completely withered)),5 (Herbicidal ratio of 90% or more (almost completely withered)),0 (Herbicidal ratio of 5% or lower (almost no effect)),3 (Herbicidal ratio of 40% or higher and lower than 70%),1 (Herbicidal ratio of 5% or higher and lower than 20%),3 (Herbicidal ratio of 40% or higher and lower than 70%),3 (Herbicidal ratio of 40% or higher and lower than 70%),3 (Herbicidal ratio of 40% or higher and lower than 70%),0 (Herbicidal ratio of 5% or lower (almost no effect))
CON=C(C)CON=C(C)CC1CC(O)=C(c2c(C)cc(C)cc2C)C1=O (stereo not shown) [1-105],5 (Herbicidal ratio of 90% or more (almost completely withered)),4 (Herbicidal ratio of 70% or higher and lower than 90%),5 (Herbicidal ratio of 90% or more (almost completely withered)),5 (Herbicidal ratio of 90% or more (almost completely withered)),0 (Herbicidal ratio of 5% or lower (almost no effect)),3 (Herbicidal ratio of 40% or higher and lower than 70%),3 (Herbicidal ratio of 40% or higher and lower than 70%),5 (Herbicidal ratio of 90% or more (almost completely withered)),5 (Herbicidal ratio of 90% or more (almost completely withered)),0 (Herbicidal ratio of 5% or lower (almost no effect)),2 (Herbicidal ratio of 20% or higher and lower than 40%),2 (Herbicidal ratio of 20% or higher and lower than 40%),3 (Herbicidal ratio of 40% or higher and lower than 70%),1 (Herbicidal ratio of 5% or higher and lower than 20%),5 (Herbicidal ratio of 90% or more (almost completely withered)),0 (Herbicidal ratio of 5% or lower (almost no effect))
CC(CC1CC(O)=C(c2c(C)cc(C)cc2C)C1=O)=NOCc1cccc(C(F)(F)F)c1 (stereo not shown) [1-117],5 (Herbicidal ratio of 90% or more (almost completely withered)),5 (Herbicidal ratio of 90% or more (almost completely withered)),5 (Herbicidal ratio of 90% or more (almost completely withered)),4 (Herbicidal ratio of 70% or higher and lower than 90%),0 (Herbicidal ratio of 5% or lower (almost no effect)),0 (Herbicidal ratio of 5% or lower (almost no effect)),2 (Herbicidal ratio of 20% or higher and lower than 40%),5 (Herbicidal ratio of 90% or more (almost completely withered)),5 (Herbicidal ratio of 90% or more (almost completely withered)),1 (Herbicidal ratio of 5% or higher and lower than 20%),0 (Herbicidal ratio of 5% or lower (almost no effect)),0 (Herbicidal ratio of 5% or lower (almost no effect)),3 (Herbicidal ratio of 40% or higher and lower than 70%),0 (Herbicidal ratio of 5% or lower (almost no effect)),5 (Herbicidal ratio of 90% or more (almost completely withered)),0 (Herbicidal ratio of 5% or lower (almost no effect))
CON=C(C)CC1CC(OC(=O)CSc2ccccc2)=C(c2c(C)cc(C)cc2C)C1=O (stereo not shown) [1-134],5 (Herbicidal ratio of 90% or more (almost completely withered)),1 (Herbicidal ratio of 5% or higher and lower than 20%),5 (Herbicidal ratio of 90% or more (almost completely withered)),5 (Herbicidal ratio of 90% or more (almost completely withered)),0 (Herbicidal ratio of 5% or lower (almost no effect)),2 (Herbicidal ratio of 20% or higher and lower than 40%),0 (Herbicidal ratio of 5% or lower (almost no effect)),5 (Herbicidal ratio of 90% or more (almost completely withered)),5 (Herbicidal ratio of 90% or more (almost completely withered)),1 (Herbicidal ratio of 5% or higher and lower than 20%),4 (Herbicidal ratio of 70% or higher and lower than 90%),4 (Herbicidal ratio of 70% or higher and lower than 90%),1 (Herbicidal ratio of 5% or higher and lower than 20%),2 (Herbicidal ratio of 20% or higher and lower than 40%),5 (Herbicidal ratio of 90% or more (almost completely withered)),0 (Herbicidal ratio of 5% or lower (almost no effect))
